Measurements reported in patent publication US11473052B2, “Bacillus subtilis subspecies” (Novozymes A/S, priority 2015, dated 2022).
Where two headings read alike, the source gives them in different places.

What was measured:
B. subtilis DSM 29870 = test: MIC of antibiotics by broth micro dilution (CLSI M07-A9); settings: Bacillus subtilis
S. aureus ATCC 29213 = test: MIC of antibiotics by broth micro dilution (CLSI M07-A9), control strain; settings: Staphylococcus aureus

`CN[C@H](CC(C)C)C(=O)N[C@H]1C(=O)N[C@@H](CC(N)=O)C(=O)N[C@H]2C(=O)N[C@H]3C(=O)N[C@H](C(=O)N[C@H](C(=O)O)c4cc(O)cc(O)c4-c4cc3ccc4O)[C@H](O)c3ccc(c(Cl)c3)Oc3cc2cc(c3O[C@@H]2O[C@H](CO)[C@@H](O)[C@H](O)[C@H]2O[C@H]2C[C@](C)(N)[C@H](O)[C@H](C)O2)Oc2ccc(cc2Cl)[C@H]1O` [Vancomycin] showed an MIC (B. subtilis DSM 29870; DSM29870, read-out: MIC 1) of 0.25 µg/mL, an MIC (B. subtilis DSM 29870; DSM29870, read-out: MIC 2) of 0.25 µg/mL and an MIC (B. subtilis DSM 29870; DSM29870, read-out: MIC 3) of 0.25 µg/mL. The MIC (S. aureus ATCC 29213; ATCC29213, read-out: MIC 1) was 0.5 µg/mL, the MIC (S. aureus ATCC 29213; ATCC29213, read-out: MIC 2) was 1 µg/mL and the MIC (S. aureus ATCC 29213; ATCC29213, read-out: MIC 3) was 1 µg/mL.
